# Results from patent US6548096B1, “Aspartyl dipeptide ester derivatives and sweeteners” (Ajinomoto Co., Inc., priority 1998, dated 2003).
# Assay: Sensory evaluation of sweetening potency relative to sugar
# Assay type: in vivo
# Settings: for Sweetening potency (relative to sugar): times that of sugar, sensory evaluation; for sweetening potency: Relative to sweetening potency of a 4% sucrose aqueous solution
# Description: For example, the sweetening potency of N-[N-[3(3-methyl-4-hydroxyphenyl)propyl]-L-α-aspartyl]-L-phenylalanine 1-methyl ester was approximately 35,000 times that of sugar; that of N-[N-[3-(2-hydroxy-4-methylphenyl)propyl]-L-α-aspartyl]-L-α-phenylalanine 1-methyl ester was approximately 30,000 times that of sugar; that of N-[N-[3-(3-hydroxy-4-methoxyphenyl)propyl]-L-α-aspartyl]-L-phenylalanine 1-methyl ester was approximately 20,000 times that of sugar; that of N-[N-[3-(2-hydroxy-4-methoxyphenyl)propyl]-L-α-aspartyl]-L-phenylalanine 1-methyl ester was approximately 20,000 times that of sugar; that of N-[N-[3-(3-hydroxy-4-methylphenyl)propyl]-L-α-aspartyl]-L-phenylalanine 1-methyl ester was approximately 15,000 times that of sugar; that of N-(N-(3-(3-hydroxyphenyl)propyl]-L-α-aspartyl]-L-phenylalanine 1-methyl ester was approximately 8,000 times that of sugar; that of N-[N-(3-(4-methoxyphenyl)propyl]-L-α-aspartyl]-L-phenylalanine 1-methyl ester was approximately 6,500 times that of sugar; and that of N-(N-[3-(3-hydroxy-4-methoxyphenyl)propyl]-L-α-aspartyl]-L-tyrosine 1-methyl ester was approximately 16,000 times that of sugar.
# The structures and the results of the sensory evaluation of aspartyl dipeptide derivatives represented by formula (2) are shown in Table 1. [drawing 3]
SMILES,Sweetening potency (relative to sugar),sweetening potency,also measured
COC(=O)[C@H](Cc1ccccc1)NC(=O)[C@H](CC(=O)O)NCCCc1ccc(C)c(O)c1,"approximately 15,000 times",,
"COC(=O)[C@H](Cc1ccccc1)NC(=O)[C@H](CC(=O)O)NCCCc1ccc(OC)cc1OC [Compound 14, N-[N-[3-(2,4-dimethoxyphenyl)propyl]-L-α-aspartyl]-L-phenylalanine 1-methyl ester]","4,000 times",4000,
"COC(=O)[C@H](Cc1ccccc1)NC(=O)[C@H](CC(=O)O)NCCCc1ccc(OC)cc1O [Compound 10, N-[N-[3-(2-hydroxy-4-methoxyphenyl)propyl]-L-α-aspartyl]-L-phenylalanine 1-methyl ester]",,20000,"Sweetening potency (relative to sugar) (listed as Example 11): 20,000 times"
"COC(=O)[C@H](Cc1ccccc1)NC(=O)[C@H](CC(=O)O)NCCCc1cc(OC)ccc1O [Compound 12, N-[N-[3-(2-hydroxy-5-methoxyphenyl)propyl]-L-α-aspartyl]-L-phenylalanine 1-methyl ester]","1,500 times",1500,
"COC(=O)[C@H](Cc1ccccc1)NC(=O)[C@H](CC(=O)O)NCCCc1cc(OC)cc(OC)c1 [Compound 19, N-[N-[3-(3,5-dimethoxyphenyl)propyl]-L-α-aspartyl]-L-phenylalanine 1-methyl ester]",800 times,800,
"COC(=O)[C@H](Cc1ccccc1)NC(=O)[C@H](CC(=O)O)NCCCc1ccc2c(c1)OCO2 [Compound 3, N-[N-[3-(3,4-methylenedioxyphenyl)propyl]-L-α-aspartyl]-L-phenylalanine 1-methyl ester]","5,000 times",5000,
"COC(=O)[C@H](Cc1ccccc1)NC(=O)[C@H](CC(=O)O)NCCCc1cccc(O)c1 [Compound 7, N-[N-[3-(3-hydroxyphenyl)propyl]-L-α-aspartyl]-L-phenylalanine 1-methyl ester]","approximately 8,000 times",8000,"Sweetening potency (relative to sugar) (listed as Example 8): 8,000 times"
COC(=O)[C@H](Cc1ccccc1)NC(=O)[C@H](CC(=O)O)NCCCc1ccc(OC)cc1O,"approximately 20,000 times",,
"COC(=O)[C@H](Cc1ccccc1)NC(=O)[C@H](CC(=O)O)NCCCc1ccc(OC)cc1 [Compound 5, N-[N-[3-(4-methoxyphenyl)propyl]-L-α-aspartyl]-L-phenylalanine 1-methyl ester]",,6500,"Sweetening potency (relative to sugar) (listed as Example 5): 6,500 times; Sweetening potency (relative to sugar) (listed as N-[N-(3-(4-methoxyphenyl)propyl]-L-α-aspartyl]-L-phenylalanine 1-methyl ester)): approximately 6,500 times"
"COC(=O)[C@H](Cc1ccccc1)NC(=O)[C@H](CC(=O)O)NCCCc1ccc(C)c(O)c1 [Compound 17, N-[N-[3-(3-hydroxy-4-methylphenyl)propyl]-L-α-aspartyl]-L-phenylalanine 1-methyl ester]",,15000,"Sweetening potency (relative to sugar) (listed as Example 18): 15,000 times"
COC(=O)[C@H](Cc1ccccc1)NC(=O)[C@H](CC(=O)O)NCCCc1ccc(OC)c(O)c1,"approximately 20,000 times",,
"COC(=O)[C@H](Cc1ccccc1)NC(=O)[C@H](CC(=O)O)NCCCc1ccc(C)cc1 [Compound 21, N-[N-[3-(4-Methylphenyl)propyl]-L-α-aspartyl]-L-phenylalanine 1-Methyl Ester]","4,000 times",4000,
